Source: patent US20190161451A1, “HERBICIDAL PYRIMIDINE COMPOUNDS” (BASF SE, priority 2016, published 2019)

Legend:
ALOMY = test: greenhouse experiment, post-emergence treatment; type: in vivo, Alopecurus myosuroides; conditions: post-emergence method, application rate 1000 g/ha, scale from 0 to 100
Description: (§1) The culture containers used were plastic flowerpots containing loamy sand with approximately 3.0% of humus as the substrate. The seeds of the test plants were sown separately for each species.
(§2) For the post-emergence treatment, the test plants were first grown to a height of 3 to 15 cm, depending on the plant habit, and only then treated with the active ingredients which had been suspended or emulsified in water. For this purpose, the test plants were either sown directly and grown in the same containers, or they were first grown separately as seedlings and transplanted into the test containers a few days prior to treatment.
(§3) Depending on the species, the plants were kept at 10-25° C. or 20-35° C., respectively.
(§4) The test period extended over 2 to 4 weeks. During this time, the plants were tended, and their response to the individual treatments was evaluated.
(§5) Evaluation was carried out using a scale from 0 to 100. 100 means no emergence of the plants, or complete destruction of at least the aerial moieties, and 0 means no damage, or normal course of growth. A good herbicidal activity is given at values of at least 70 and a very good herbicidal activity is given at values of at least 85.
(§6) The plants used in the greenhouse experiments were of the following species: […]

AMARE [1] = test: greenhouse experiment, post-emergence treatment; type: in vivo, Amaranthus retroflexus; conditions: post-emergence method, application rate 1000 g/ha, scale from 0 to 100
Description: as §1, §2, §3, §4, §5, §6

ECHCG [2] = test: greenhouse experiment, pre-emergence treatment; type: in vivo, Echinocloa crus-galli; conditions: pre-emergence method, application rate 1000 g/ha, scale from 0 to 100
Description: as §1
(§7) For the pre-emergence treatment, the active ingredients, which had been suspended or emulsified in water, were applied directly after sowing by means of finely distributing nozzles.
(§8) The containers were irrigated gently to promote germination and growth and subsequently covered with transparent plastic hoods until the plants had rooted. This cover caused uniform germination of the test plants, unless this had been impaired by the active ingredients.
as §3, §4, §5, §6

APESV = test: greenhouse experiment, pre-emergence treatment; type: in vivo, Apera spica-venti; conditions: pre-emergence method, application rate 1000 g/ha, scale from 0 to 100
Description: as §1, §7, §8, §3, §4, §5, §6

AMARE [3] = test: greenhouse experiment, pre-emergence treatment; type: in vivo, Amaranthus retroflexus; conditions: pre-emergence method, application rate 1000 g/ha, scale from 0 to 100
Description: as §1, §7, §8, §3, §4, §5, §6

AVEFA = test: greenhouse experiment, post-emergence treatment; type: in vivo, Avena fatua; conditions: post-emergence method, application rate 1000 g/ha, scale from 0 to 100
Description: as §1, §2, §3, §4, §5, §6

ECHCG [4] = test: greenhouse experiment, post-emergence treatment; type: in vivo, Echinocloa crus-galli; conditions: post-emergence method, application rate 1000 g/ha, scale from 0 to 100
Description: as §1, §2, §3, §4, §5, §6

ABUTH = test: greenhouse experiment, post-emergence treatment; type: in vivo, Abutilon theophrasti; conditions: post-emergence method, application rate 1000 g/ha, scale from 0 to 100
Description: as §1, §2, §3, §4, §5, §6

SETFA = test: greenhouse experiment, pre-emergence treatment; type: in vivo, Setaria faberi Herrm; conditions: pre-emergence method, application rate 1000 g/ha, scale from 0 to 100
Description: as §1, §7, §8, §3, §4, §5, §6

Compound	herbicidal activity against ALOMY (ALOMY)	herbicidal activity against AMARE (AMARE [1])	herbicidal activity against ECHCG (ECHCG [2])	herbicidal activity against APESV (APESV)	herbicidal activity against AMARE (AMARE [3])	herbicidal activity against AVEFA (AVEFA)	herbicidal activity against ECHCG (ECHCG [4])	herbicidal activity against ABUTH (ABUTH)	herbicidal activity against SETFA (SETFA)
O=C(O)c1nc(C2CC2)ncc1-c1cccc2c1OCO2 [example 6]	very good (a very good herbicidal activity is given at values of at least 85)	very good (a very good herbicidal activity is given at values of at least 85)	very good (a very good herbicidal activity is given at values of at least 85)	very good (a very good herbicidal activity is given at values of at least 85)	very good (a very good herbicidal activity is given at values of at least 85)				
O=C(O)c1nc(C2CC2)ncc1-c1c(Cl)ccc2c1OCO2 [example 14]	good (A good herbicidal activity is given at values of at least 70)		very good (a very good herbicidal activity is given at values of at least 85)	very good (a very good herbicidal activity is given at values of at least 85)		good (A good herbicidal activity is given at values of at least 70)			
O=C(O)c1nc(C2CC2)ncc1-c1cc2c(cc1Br)OCO2 [example 25]	good (A good herbicidal activity is given at values of at least 70)		very good (a very good herbicidal activity is given at values of at least 85)	very good (a very good herbicidal activity is given at values of at least 85)			good (A good herbicidal activity is given at values of at least 70)	good (A good herbicidal activity is given at values of at least 70)	
COC(=O)c1nc(C2CC2)ncc1-c1ccc2ccccc2c1Cl [example 26]									very good (a very good herbicidal activity is given at values of at least 85)
